{
  "source": "patent US20230390278A1",
  "about": "“SYNERGISTIC COMBINATIONS OF VALPROOIC ACID AND QUINACRINE” (VESTLANDETS INNOVASJONSSELSKAP AS, priority 2020, published 2023)",
  "key": {"[1]": {"assay": "Plasma levels of QC and VPA in blood of off-label treated AML patients, measured by LC/MS", "assay_type": "in vivo, human", "details": "for concentration at 3 h: 3 h after intake; for concentration at 25 day: Patient 1, day 25, QC 200 mg/day, VPA 600 + 1200 mg/day; for concentration at 64 day: Patient 1, day 64, QC 300 mg/day; for concentration at 163 day: Patient 1, day 163, QC 400 mg/day; for concentration at 65 day: Patient 2, day 65, QC 200 mg/day", "text": "The plasma concentration may be the blood plasma concentration or bone marrow plasma concentration. […] Plasma concentrations may be determined by liquid chromatography-mass spectrometry (LC-MS)."}, "[2]": {"assay": "Plasma levels of QC and VPA in bone marrow (BM) of off-label treated AML patients, measured by LC/MS", "assay_type": "in vivo, human"}, "[3]": {"details": "human, oral, VPA 300 + 600 mg/day, read-out: Plasma QC"}, "[4]": {"details": "human, oral, Plasma VPA, VPA 300 + 600 mg/day"}},
  "note": "Read-outs that look alike come from different tables or passages of the source.",
  "data": [
    {"smiles": "CCN(CC)CCCC(C)Nc1c2ccc(Cl)cc2nc2ccc(OC)cc12", "note": "(racemic) [QC, (RS)-N′-(6-chloro-2-methoxy-acridin-9-yl)-N, N-diethyl-pentane-1,4-diamine]", "values": [
      {"measurement": "concentration at 3 h", "setting": "[1]; human, oral, Patient 1, day 1, QC 100 mg/day, VPA 300 + 300 mg/day, read-out: Plasma QC", "value": 4, "unit": "nM"},
      {"measurement": "concentration at 25 day", "setting": "[1]; human, oral, read-out: Plasma QC", "value": 52, "unit": "nM"},
      {"measurement": "concentration at 64 day", "setting": "[1]; human, oral, VPA 600 + 900 mg/day, read-out: Plasma QC", "value": 138, "unit": "nM"},
      {"measurement": "concentration at 128 day", "setting": "[1]; human, oral, Patient 1, day 128, QC 400 mg/day, VPA 600 + 900 mg/day", "value": 38, "unit": "nM"},
      {"measurement": "concentration at 163 day", "setting": "[1]; [3]", "value": 38, "unit": "nM"},
      {"measurement": "concentration at 3 h", "setting": "[1]; human, oral, Patient 2, day 1, QC 100 mg/day, VPA 300 + 600 mg/day, read-out: Plasma QC", "value": 8, "unit": "nM"},
      {"measurement": "concentration at 15 day", "setting": "[1]; human, oral, Patient 2, day 15, QC 200 mg/day, VPA 600 + 600 mg/day, read-out: Plasma QC", "value": 18, "unit": "nM"},
      {"measurement": "concentration at 65 day", "setting": "[1]; [3]", "value": 130, "unit": "nM"},
      {"measurement": "concentration at 3 h", "setting": "[1]; human, oral, Patient 3, day 1, QC 100 mg/day, VPA 300 + 300 mg/day, read-out: Plasma QC", "value": 8, "unit": "nM"},
      {"measurement": "concentration at 15 day", "setting": "[1]; human, oral, Patient 3, day 15, QC 300 mg/day, VPA 300 + 600 mg/day, read-out: Plasma QC", "value": 300, "unit": "nM"},
      {"measurement": "Plasma QC, BM", "setting": "[2]; Patient 1, day 163, QC 400 mg/day, VPA 300 + 600 mg/day", "value": "BM: 44 nM"},
      {"measurement": "Plasma QC, BM", "setting": "[2]; Patient 2, day 15, QC 200 mg/day, VPA 600 + 600 mg/day", "value": "BM: 32 nM"},
      {"measurement": "Plasma QC, BM", "setting": "[2]; Patient 2, day 65, QC 200 mg/day, VPA 300 + 600 mg/day", "value": "BM: 332 nM"}
    ]},
    {"smiles": "CCCC(CCC)C(=O)O", "note": "[VPA, 2-propylvaleric acid]", "values": [
      {"measurement": "Plasma VPA", "setting": "[1]; Patient 1, day 128, QC 400 mg/day, VPA 600 + 900 mg/day, neg: negative", "value": "neg"},
      {"measurement": "concentration at 3 h", "setting": "[1]; human, oral, Plasma VPA, Patient 1, day 1, QC 100 mg/day, VPA 300 + 300 mg/day", "value": 17100, "unit": "nM"},
      {"measurement": "concentration at 25 day", "setting": "[1]; human, oral, Plasma VPA", "value": 43000, "unit": "nM"},
      {"measurement": "concentration at 64 day", "setting": "[1]; human, oral, Plasma VPA, VPA 600 + 900 mg/day", "value": 25600, "unit": "nM"},
      {"measurement": "concentration at 163 day", "setting": "[1]; [4]", "value": 119000, "unit": "nM"},
      {"measurement": "concentration at 3 h", "setting": "[1]; human, oral, Plasma VPA, Patient 2, day 1, QC 100 mg/day, VPA 300 + 600 mg/day", "value": 156000, "unit": "nM"},
      {"measurement": "concentration at 15 day", "setting": "[1]; human, oral, Plasma VPA, Patient 2, day 15, QC 200 mg/day, VPA 600 + 600 mg/day", "value": 442000, "unit": "nM"},
      {"measurement": "concentration at 65 day", "setting": "[1]; [4]", "value": 341000, "unit": "nM"},
      {"measurement": "concentration at 3 h", "setting": "[1]; human, oral, Plasma VPA, Patient 3, day 1, QC 100 mg/day, VPA 300 + 300 mg/day", "value": 120000, "unit": "nM"},
      {"measurement": "concentration at 15 day", "setting": "[1]; human, oral, Plasma VPA, Patient 3, day 15, QC 300 mg/day, VPA 300 + 600 mg/day", "value": 41300, "unit": "nM"}
    ]}
  ]
}
